Holding throughout (type): in vivo, mouse
Assay [1] concerns gonadectomized mice. Description: Inescapable foot shock stress followed by female urine preference. The settings on record: 10 mm silastic implant; for stress-induced female urine preference deficits: orchiectomized males, inescapable foot shock. The protocol:
Determine effects of E2 on gonadectomy-induced susceptibility to inescapable traumatic shock stress in males and females. Most of these experiments assess the effects of social defeat stress. In this experiment the effects of an alternative type of stress-inescapable foot shocks are assessed—to determine whether the observed biological effects of E2 are stress specific. […] The effects of this stress on maladaptive behaviors and their possible reversal by testosterone and E2 are assessed. The following groups of mice are used for this experiment: (1) Sham Surgery+empty silastic tube; (2) ORX+empty silastic tube; (3) Sham Surgery+testosterone (10 mm) containing silastic tube; (4) ORX+testosterone (10 mm) containing silastic tube; (5) Sham Surgery+E2 (10 mm) containing silastic tube; (6) ORX+E2 (10 mm) containing silastic tube. Mice are exposed to inescapable foot shock (0.3 mA shocks; 180 shocks at 15 sec intervals) in a two-chambered shuttle box with a permanent divider in place. Controls are placed in the same chambers but will not receive shocks. Twenty-four hours later mice are subsequently tested for social interaction and female urine preference. As a comparison to male results, a similar experiment is conducted in females with the following groups: (1) Sham Surgery+empty silastic tube; (2) OVX+empty silastic tube; (3) Sham Surgery+E2 (10 mm) containing silastic tube; (4) OVX+E2 (10 mm) containing silastic tube. It is predicted that the effects of orchiectomy in males are reproduced to enhance stress-induced decreases in female urine preference deficits, which will be prevented by both testosterone and E2.

The test system of assay [2] is mice. Description: Acoustic startle response after traumatic foot shock stress. The settings on record: acute foot shock stress, 10 mm silastic implant. An excerpt:
Determine the role of E2 in traumatic stress-induced changes in startle response in males and females. Heightened startle reactivity is a DSM diagnostic criteria for PTSD. Individuals suffering from PTSD frequently report subjective elevations in startle response and objective studies have described increased startle reactivity in individuals with PTSD. Moreover, physiological startle response is correlated with the severity of self-reported hyperarousal symptom domains and attenuated by interventions that improve PTSD symptoms. In rodents, like humans, the startle response can be elicited by acoustic stimuli (acoustic startle response, ASR) and involves eyelid closure and skeletal muscle contractions. While ASR is frequently assessed via the eye blink reflex in humans, it can be accurately assayed via whole-body movements in rodents. Importantly, elevated ASR has been reported in rodents following traumatic stress, including electrical shock and social defeat stress. ASR is utilized as a measure of hyperarousal in mice following traumatic stress. Similar to previously described methods, ASR is assessed following acute foot shock stress. Baseline ASR is assessed over 10 startle stimuli (110 dB, pseudo-randomized average inter-stimulus interval of 30 sec). […] Changes in ASR are measured 24 hours after shock using the same startle protocol. […]

The subject of assay [3] is male mice. As to the kind of experiment: Acquisition, extinction and reinstatement of cued (Pavlovian) fear. Conditions: non-stressed orchiectomized males, 10 mm silastic implant. The protocol: Determine the role of E2 in the normal acquisition, extinction, and reinstatement of cued (Pavlovian) fear responses in males. The effect of orchiectomy on the acquisition, extinction, and reinstatement of fear in non-stressed male animals is determined. It has previously been reported that orchiectomy enhances tone conditioned freezing in male mice, which was prevented with systemic testosterone administration. It has also been reported that orchiectomy delayed extinction of fear responses in male rats. The role of E2 is known in mediating fear responses, extinction, and related cognitive functions in female rodents. Fear conditioning takes place in Coulbourn shuttle boxes. The floor of the chambers consists of parallel rods connected to a Coulbourn shock source that delivers foot shocks. A speaker mounted on the top of the chamber delivers an acoustic conditioned stimulus (pure tone). […] Mice are placed in the chamber for a 3 min habituation period, wherein baseline freezing to the novel context will be assessed. […] One week later, mice are assessed for reinstatement of the conditioned fear. […] Time spent freezing across CS presentations during the extinction procedure (Days 2 and 3) is assessed with Coulbourn automated FreezeFrame software. […] If differences between the groups are detected, then whether these effects are due to altered shock sensitivity, are assessed.

SMILES strings stand for the structures.

Turning to `C[C@]12CC[C@H]3[C@@H](CCC4=CC(=O)CC[C@@]43C)[C@@H]1CC[C@@H]2O` [Testosterone, testosterone], in assay [1], the “stress-induced female urine preference deficits” value is given as “prevented”. Also, in assay [2], the “increased startle after stress+orchiectomy” value was “recoverable”. The “orchiectomy-enhanced fear conditioning and reduced rate of extinction” value in assay [3] was “prevented by testosterone”.

Take `C[C@]12CC[C@@H]3c4ccc(O)cc4CC[C@H]3[C@@H]1CC[C@@H]2O` [Example E2, 17β-Estradiol]: the “stress-induced female urine preference deficits” value in assay [1] is recorded as “prevented”. Besides, the “effects of ovariectomy plus foot shock stress” value in assay [1] (ovariectomized females) is reported as “prevented by the replacement of E2”. Besides, the “increased startle after stress+orchiectomy” value in assay [2] is given as “recoverable”. In addition, in assay [3], the “orchiectomy-enhanced fear conditioning and reduced rate of extinction” value was “reverse this effect”.
